According to PubChem BioAssay AID1919003 (Molecular Pharmacology Branch, DTP, NCI, 2023):

System: 786-0 complex spheroids with HUVEC/MSC, growth % test/control
Experiment: Anticancer human tumor 786-0 cell line growth inhibition [AhR];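 also: compound exposure lasted seven days before the read-out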
Conditions: for IC50: curve of first compound; for viability, T/C: stronger effect = lower value
How it was run: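 Complex tumor spheroids co-cultured with HUVEC and human MSC stroma; AhR antagonists tested in combination with standard-of-care and investigational agents. Top concentration at or near clinical Cmax (else 10 microM), half-log dilutions; growth expressed as percent test/control.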

[1] = second compound 0.1 µM, first compound 0.0316 µM
[2] = second compound 0.1 µM, first compound 0.1 µM
[3] = second compound 0.1 µM, first compound 0.316 µM
[4] = second compound 0.1 µM, first compound 1 µM
[5] = second compound 0.1 µM, first compound 3.16 µM
[6] = second compound 0.1 µM, first compound 10 µM
[7] = second compound 0.316 µM, first compound 0.0316 µM
[8] = second compound 0.316 µM, first compound 0.1 µM
[9] = second compound 0.316 µM, first compound 0.316 µM
[10] = second compound 0.316 µM, first compound 1 µM
[11] = second compound 0.316 µM, first compound 3.16 µM
[12] = second compound 0.316 µM, first compound 10 µM
[13] = second compound 1 µM, first compound 0.0316 µM
[14] = second compound 1 µM, first compound 0.1 µM
[15] = second compound 1 µM, first compound 0.316 µM
[16] = second compound 1 µM, first compound 1 µM
[17] = second compound 1 µM, first compound 3.16 µM
[18] = second compound 1 µM, first compound 10 µM
[19] = second compound 3.16 µM, first compound 0.0316 µM
[20] = second compound 3.16 µM, first compound 0.1 µM
[21] = second compound 3.16 µM, first compound 0.316 µM
[22] = second compound 3.16 µM, first compound 1 µM
[23] = second compound 3.16 µM, first compound 3.16 µM
[24] = second compound 3.16 µM, first compound 10 µM
[25] = second compound 10 µM, first compound 0.0316 µM
[26] = second compound 10 µM, first compound 0.1 µM
[27] = second compound 10 µM, first compound 0.316 µM
[28] = second compound 10 µM, first compound 1 µM
[29] = second compound 10 µM, first compound 3.16 µM
[30] = second compound 10 µM, first compound 10 µM
[31] = second compound 0.1 µM, first compound 0.00949 µM
[32] = second compound 0.1 µM, first compound 0.03 µM
[33] = second compound 0.1 µM, first compound 0.0949 µM
[34] = second compound 0.1 µM, first compound 0.3 µM
[35] = second compound 0.1 µM, first compound 0.949 µM
[36] = second compound 0.1 µM, first compound 3 µM
[37] = second compound 0.316 µM, first compound 0.00949 µM
[38] = second compound 0.316 µM, first compound 0.03 µM
[39] = second compound 0.316 µM, first compound 0.0949 µM
[40] = second compound 0.316 µM, first compound 0.3 µM
[41] = second compound 0.316 µM, first compound 0.949 µM
[42] = second compound 0.316 µM, first compound 3 µM
[43] = second compound 1 µM, first compound 0.00949 µM
[44] = second compound 1 µM, first compound 0.03 µM
[45] = second compound 1 µM, first compound 0.0949 µM
[46] = second compound 1 µM, first compound 0.3 µM
[47] = second compound 1 µM, first compound 0.949 µM
[48] = second compound 1 µM, first compound 3 µM
[49] = second compound 3.16 µM, first compound 0.00949 µM
[50] = second compound 3.16 µM, first compound 0.03 µM
[51] = second compound 3.16 µM, first compound 0.0949 µM
[52] = second compound 3.16 µM, first compound 0.3 µM
[53] = second compound 3.16 µM, first compound 0.949 µM
[54] = second compound 3.16 µM, first compound 3 µM
[55] = second compound 10 µM, first compound 0.00949 µM
[56] = second compound 10 µM, first compound 0.03 µM
[57] = second compound 10 µM, first compound 0.0949 µM
[58] = second compound 10 µM, first compound 0.3 µM
[59] = second compound 10 µM, first compound 0.949 µM
[60] = second compound 10 µM, first compound 3 µM

CC1(C)CCC(CN2CCN(c3ccc(C(=O)NS(=O)(=O)c4ccc(NCC5CCOCC5)c([N+](=O)[O-])c4)c(Oc4cnc5[nH]ccc5c4)c3)CC2)=C(c2ccc(Cl)cc2)C1 + Cc1cncc(-c2nc(NCCc3c[nH]c4ccccc34)c3ncn(C(C)C)c3n2)c1
IC50 (second compound 0.1 µM): > 10 µM
IC50 (second compound 0.316 µM): > 10 µM
IC50 (second compound 1 µM): > 10 µM
IC50 (second compound 3.16 µM): > 10 µM
IC50 (second compound 10 µM): < 0.0316 µM
viability, T/C [1]: 107%
viability, T/C [2]: 123%
viability, T/C [3]: 117%
viability, T/C [4]: 109%
viability, T/C [5]: 113%
viability, T/C [6]: 93.3%
viability, T/C [7]: 117%
viability, T/C [8]: 118%
viability, T/C [9]: 119%
viability, T/C [10]: 129%
viability, T/C [11]: 102%
viability, T/C [12]: 93.8%
viability, T/C [13]: 118%
viability, T/C [14]: 105%
viability, T/C [15]: 109%
viability, T/C [16]: 103%
viability, T/C [17]: 102%
viability, T/C [18]: 97.3%
viability, T/C [19]: 65.4%
viability, T/C [20]: 71.9%
viability, T/C [21]: 74.4%
viability, T/C [22]: 76.8%
viability, T/C [23]: 67.4%
viability, T/C [24]: 70.8%
viability, T/C [25]: 5.05%
viability, T/C [26]: 3.29%
viability, T/C [27]: 6.81%
viability, T/C [28]: 6.55%
viability, T/C [29]: 6.02%
viability, T/C [30]: 23.1%

CC1COCCN1c1cc(C2(S(C)(=N)=O)CC2)nc(-c2ccnc3[nH]ccc23)n1 (stereo not given) + Cc1cncc(-c2nc(NCCc3c[nH]c4ccccc34)c3ncn(C(C)C)c3n2)c1
IC50 (second compound 0.1 µM): 7.11 µM
IC50 (second compound 0.316 µM): 6.48 µM
IC50 (second compound 1 µM): 4.84 µM
IC50 (second compound 3.16 µM): 1.23 µM
IC50 (second compound 10 µM): < 0.0316 µM
viability, T/C [1]: 107%
viability, T/C [2]: 118%
viability, T/C [3]: 116%
viability, T/C [4]: 113%
viability, T/C [5]: 97.7%
viability, T/C [6]: 29.8%
viability, T/C [7]: 122%
viability, T/C [8]: 117%
viability, T/C [9]: 112%
viability, T/C [10]: 108%
viability, T/C [11]: 91.9%
viability, T/C [12]: 25.3%
viability, T/C [13]: 100%
viability, T/C [14]: 110%
viability, T/C [15]: 105%
viability, T/C [16]: 125%
viability, T/C [17]: 67%
viability, T/C [18]: 20.9%
viability, T/C [19]: 62.4%
viability, T/C [20]: 64.5%
viability, T/C [21]: 69%
viability, T/C [22]: 53.6%
viability, T/C [23]: 26.9%
viability, T/C [24]: 5.56%
viability, T/C [25]: 18.2%
viability, T/C [26]: 18.7%
viability, T/C [27]: 20.6%
viability, T/C [28]: 17.5%
viability, T/C [29]: 3.02%
viability, T/C [30]: 0.89%

CCN(c1cc(-c2ccc(CN3CCOCC3)cc2)cc(C(=O)NCc2c(C)cc(C)[nH]c2=O)c1C)C1CCOCC1 + Cc1cncc(-c2nc(NCCc3c[nH]c4ccccc34)c3ncn(C(C)C)c3n2)c1
IC50 (second compound 0.1 µM): > 3 µM
IC50 (second compound 0.316 µM): > 3 µM
IC50 (second compound 1 µM): > 3 µM
IC50 (second compound 3.16 µM): > 3 µM
IC50 (second compound 10 µM): < 0.00949 µM
viability, T/C [31]: 121%
viability, T/C [32]: 119%
viability, T/C [33]: 112%
viability, T/C [34]: 121%
viability, T/C [35]: 120%
viability, T/C [36]: 131%
viability, T/C [37]: 125%
viability, T/C [38]: 120%
viability, T/C [39]: 128%
viability, T/C [40]: 131%
viability, T/C [41]: 131%
viability, T/C [42]: 138%
viability, T/C [43]: 113%
viability, T/C [44]: 118%
viability, T/C [45]: 113%
viability, T/C [46]: 114%
viability, T/C [47]: 126%
viability, T/C [48]: 127%
viability, T/C [49]: 75.8%
viability, T/C [50]: 73.8%
viability, T/C [51]: 79.2%
viability, T/C [52]: 73.5%
viability, T/C [53]: 74.4%
viability, T/C [54]: 76.9%
viability, T/C [55]: 16%
viability, T/C [56]: 14.8%
viability, T/C [57]: 23.9%
viability, T/C [58]: 14.8%
viability, T/C [59]: 4.25%
viability, T/C [60]: 0.53%

Nc1ncn(C2CC(O)C(CO)S2)c(=O)n1 (stereo not given) + Cc1cncc(-c2nc(NCCc3c[nH]c4ccccc34)c3ncn(C(C)C)c3n2)c1
IC50 (second compound 0.1 µM): > 0.3 µM
IC50 (second compound 0.316 µM): > 0.3 µM
IC50 (second compound 1 µM): > 0.3 µM
IC50 (second compound 3.16 µM): 0.0223 µM
IC50 (second compound 10 µM): < 0.000949 µM
viability, T/C (second compound 0.1 µM, first compound 0.000949 µM): 120%
viability, T/C (second compound 0.1 µM, first compound 0.003 µM): 123%
viability, T/C [31]: 122%
viability, T/C [32]: 118%
viability, T/C [33]: 94.2%
viability, T/C [34]: 82.7%
viability, T/C (second compound 0.316 µM, first compound 0.000949 µM): 121%
viability, T/C (second compound 0.316 µM, first compound 0.003 µM): 117%
viability, T/C [37]: 121%
viability, T/C [38]: 110%
viability, T/C [39]: 94.7%
viability, T/C [40]: 79.3%
viability, T/C (second compound 1 µM, first compound 0.000949 µM): 101%
viability, T/C (second compound 1 µM, first compound 0.003 µM): 102%
viability, T/C [43]: 94.3%
viability, T/C [44]: 90.3%
viability, T/C [45]: 61.1%
viability, T/C [46]: 57.6%
viability, T/C (second compound 3.16 µM, first compound 0.000949 µM): 69.2%
viability, T/C (second compound 3.16 µM, first compound 0.003 µM): 65.2%
viability, T/C [49]: 59.8%
viability, T/C [50]: 46.6%
viability, T/C [51]: 40.4%
viability, T/C [52]: 39.9%
viability, T/C (second compound 10 µM, first compound 0.000949 µM): 17.2%
viability, T/C (second compound 10 µM, first compound 0.003 µM): 14.9%
viability, T/C [55]: 22%
viability, T/C [56]: 15.6%
viability, T/C [57]: 10.9%
viability, T/C [58]: 9.94%

O=C(C=Cn1cnc(-c2cc(C(F)(F)F)cc(C(F)(F)F)c2)n1)NNc1cnccn1 + Cc1cncc(-c2nc(NCCc3c[nH]c4ccccc34)c3ncn(C(C)C)c3n2)c1
IC50 (second compound 0.1 µM): 0.736 µM
IC50 (second compound 0.316 µM): 0.619 µM
IC50 (second compound 1 µM): 0.562 µM
IC50 (second compound 3.16 µM): 0.412 µM
IC50 (second compound 10 µM): < 0.00949 µM
viability, T/C [31]: 118%
viability, T/C [32]: 125%
viability, T/C [33]: 134%
viability, T/C [34]: 75.5%
viability, T/C [35]: 50.2%
viability, T/C [36]: 20.5%
viability, T/C [37]: 130%
viability, T/C [38]: 142%
viability, T/C [39]: 151%
viability, T/C [40]: 76%
viability, T/C [41]: 49.4%
viability, T/C [42]: 19.9%
viability, T/C [43]: 127%
viability, T/C [44]: 131%
viability, T/C [45]: 129%
viability, T/C [46]: 67.5%
viability, T/C [47]: 44.9%
viability, T/C [48]: 19.9%
viability, T/C [49]: 116%
viability, T/C [50]: 146%
viability, T/C [51]: 131%
viability, T/C [52]: 57.6%
viability, T/C [53]: 37.6%
viability, T/C [54]: 21.9%
viability, T/C [55]: 12.7%
viability, T/C [56]: 18.3%
viability, T/C [57]: 11.7%
viability, T/C [58]: 4.08%
viability, T/C [59]: 5.46%
viability, T/C [60]: 4.69%
